Read-outs that look alike come from different tables or passages of the source.
Experiments:
Assay in all cases: HotSpot kinase profiling
Format in all cases: biochemical
MLK3/MAP3K11 = biological target: T1, MLK3/MAP3K11 (Homo sapiens, UniProt Q16584)
T1 construct: purchased Reaction Biology Corp
Method in brief: (§1)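 Percent inhibition, averaged when run more than once and referenced to a DMSO negative control, came from a radioactive filter-binding readout on P81 paper. Reactions of kinase with freshly made substrate and cofactors ran for 2 h at room temperature.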

BMX/ETK = biological target: T2, BMX/ETK (Homo sapiens, UniProt P51813)
T2 construct: purchased Reaction Biology Corp
T2 sequence (P51813 1-675): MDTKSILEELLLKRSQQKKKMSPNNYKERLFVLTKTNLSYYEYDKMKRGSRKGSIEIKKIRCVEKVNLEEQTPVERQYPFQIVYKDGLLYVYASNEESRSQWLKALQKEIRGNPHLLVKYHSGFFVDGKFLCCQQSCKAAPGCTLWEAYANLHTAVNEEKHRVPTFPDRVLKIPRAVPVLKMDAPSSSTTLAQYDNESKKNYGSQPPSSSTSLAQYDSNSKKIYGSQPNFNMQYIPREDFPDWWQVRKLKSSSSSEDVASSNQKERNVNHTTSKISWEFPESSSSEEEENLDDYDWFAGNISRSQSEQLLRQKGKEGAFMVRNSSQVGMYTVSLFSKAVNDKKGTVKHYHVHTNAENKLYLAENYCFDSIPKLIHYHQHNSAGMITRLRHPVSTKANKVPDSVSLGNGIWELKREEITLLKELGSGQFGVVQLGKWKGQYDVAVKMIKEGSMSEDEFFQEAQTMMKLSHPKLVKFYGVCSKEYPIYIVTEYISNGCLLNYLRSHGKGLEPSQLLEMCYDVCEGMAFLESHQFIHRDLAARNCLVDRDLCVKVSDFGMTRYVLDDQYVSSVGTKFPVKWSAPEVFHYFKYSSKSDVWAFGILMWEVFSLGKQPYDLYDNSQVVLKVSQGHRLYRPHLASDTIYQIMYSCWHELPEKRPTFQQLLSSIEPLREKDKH
Method in brief: as §1

ROCK2 = biological target: T3, ROCK2 (Homo sapiens, UniProt O75116)
T3 construct: purchased Reaction Biology Corp
Method in brief: as §1

CAMKK2 = biological target: T4, CAMKK2 (Homo sapiens, UniProt Q96RR4)
T4 construct: purchased Reaction Biology Corp
Method in brief: as §1

PKCa = biological target: T5, PKCa (Homo sapiens, UniProt P17252)
T5 construct: purchased Reaction Biology Corp
Method in brief: as §1

TNIK = biological target: T6, TNIK (Homo sapiens, UniProt Q9UKE5)
T6 construct: purchased Reaction Biology Corp
Method in brief: as §1

RIPK3 = biological target: T7, RIPK3 (Homo sapiens, UniProt Q9Y572)
T7 construct: purchased Reaction Biology Corp
Method in brief: as §1

DCAMKL2 = biological target: T8, DCAMKL2 (Homo sapiens, UniProt Q8N568)
T8 construct: purchased Reaction Biology Corp
T8 sequence (Q8N568 1-766): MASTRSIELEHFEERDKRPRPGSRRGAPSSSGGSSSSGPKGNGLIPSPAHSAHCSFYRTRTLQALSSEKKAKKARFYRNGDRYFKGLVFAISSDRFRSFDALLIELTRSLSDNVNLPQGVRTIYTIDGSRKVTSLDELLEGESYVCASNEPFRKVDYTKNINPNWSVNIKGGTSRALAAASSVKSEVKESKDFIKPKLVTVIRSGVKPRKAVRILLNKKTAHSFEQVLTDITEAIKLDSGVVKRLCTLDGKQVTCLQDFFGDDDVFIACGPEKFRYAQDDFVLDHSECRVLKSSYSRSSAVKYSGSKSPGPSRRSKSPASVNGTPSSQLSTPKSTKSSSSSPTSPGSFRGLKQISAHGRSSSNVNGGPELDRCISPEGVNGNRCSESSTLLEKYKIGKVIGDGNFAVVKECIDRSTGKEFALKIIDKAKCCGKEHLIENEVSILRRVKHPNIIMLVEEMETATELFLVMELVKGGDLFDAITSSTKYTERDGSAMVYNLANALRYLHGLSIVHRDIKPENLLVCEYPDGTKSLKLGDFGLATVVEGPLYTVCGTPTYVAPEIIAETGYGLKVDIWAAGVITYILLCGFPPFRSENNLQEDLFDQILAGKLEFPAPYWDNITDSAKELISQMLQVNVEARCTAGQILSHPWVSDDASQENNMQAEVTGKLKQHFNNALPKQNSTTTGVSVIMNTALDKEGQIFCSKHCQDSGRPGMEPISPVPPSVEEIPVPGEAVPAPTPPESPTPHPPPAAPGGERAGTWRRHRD
Method in brief: as §1

[1] = read-out: % Enzyme Activity (relative to DMSO controls) Run 1
[2] = read-out: % Enzyme Activity (relative to DMSO controls) Run 2

T4 sequence (Q96RR4 whole entry): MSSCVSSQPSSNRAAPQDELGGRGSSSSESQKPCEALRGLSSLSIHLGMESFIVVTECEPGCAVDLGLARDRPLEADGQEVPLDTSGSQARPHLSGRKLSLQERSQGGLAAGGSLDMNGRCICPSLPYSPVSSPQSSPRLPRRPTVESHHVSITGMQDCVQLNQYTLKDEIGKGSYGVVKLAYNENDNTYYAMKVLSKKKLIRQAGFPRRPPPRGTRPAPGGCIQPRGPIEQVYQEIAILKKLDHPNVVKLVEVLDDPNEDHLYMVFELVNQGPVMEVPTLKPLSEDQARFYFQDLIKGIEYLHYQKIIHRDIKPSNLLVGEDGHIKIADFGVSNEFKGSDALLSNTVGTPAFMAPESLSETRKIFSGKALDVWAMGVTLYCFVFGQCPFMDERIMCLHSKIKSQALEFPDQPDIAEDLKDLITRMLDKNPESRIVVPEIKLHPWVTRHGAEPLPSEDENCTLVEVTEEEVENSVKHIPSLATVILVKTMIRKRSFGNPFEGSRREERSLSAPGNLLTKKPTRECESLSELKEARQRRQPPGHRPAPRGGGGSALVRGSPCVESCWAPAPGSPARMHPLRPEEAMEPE
T3 sequence (O75116 whole entry): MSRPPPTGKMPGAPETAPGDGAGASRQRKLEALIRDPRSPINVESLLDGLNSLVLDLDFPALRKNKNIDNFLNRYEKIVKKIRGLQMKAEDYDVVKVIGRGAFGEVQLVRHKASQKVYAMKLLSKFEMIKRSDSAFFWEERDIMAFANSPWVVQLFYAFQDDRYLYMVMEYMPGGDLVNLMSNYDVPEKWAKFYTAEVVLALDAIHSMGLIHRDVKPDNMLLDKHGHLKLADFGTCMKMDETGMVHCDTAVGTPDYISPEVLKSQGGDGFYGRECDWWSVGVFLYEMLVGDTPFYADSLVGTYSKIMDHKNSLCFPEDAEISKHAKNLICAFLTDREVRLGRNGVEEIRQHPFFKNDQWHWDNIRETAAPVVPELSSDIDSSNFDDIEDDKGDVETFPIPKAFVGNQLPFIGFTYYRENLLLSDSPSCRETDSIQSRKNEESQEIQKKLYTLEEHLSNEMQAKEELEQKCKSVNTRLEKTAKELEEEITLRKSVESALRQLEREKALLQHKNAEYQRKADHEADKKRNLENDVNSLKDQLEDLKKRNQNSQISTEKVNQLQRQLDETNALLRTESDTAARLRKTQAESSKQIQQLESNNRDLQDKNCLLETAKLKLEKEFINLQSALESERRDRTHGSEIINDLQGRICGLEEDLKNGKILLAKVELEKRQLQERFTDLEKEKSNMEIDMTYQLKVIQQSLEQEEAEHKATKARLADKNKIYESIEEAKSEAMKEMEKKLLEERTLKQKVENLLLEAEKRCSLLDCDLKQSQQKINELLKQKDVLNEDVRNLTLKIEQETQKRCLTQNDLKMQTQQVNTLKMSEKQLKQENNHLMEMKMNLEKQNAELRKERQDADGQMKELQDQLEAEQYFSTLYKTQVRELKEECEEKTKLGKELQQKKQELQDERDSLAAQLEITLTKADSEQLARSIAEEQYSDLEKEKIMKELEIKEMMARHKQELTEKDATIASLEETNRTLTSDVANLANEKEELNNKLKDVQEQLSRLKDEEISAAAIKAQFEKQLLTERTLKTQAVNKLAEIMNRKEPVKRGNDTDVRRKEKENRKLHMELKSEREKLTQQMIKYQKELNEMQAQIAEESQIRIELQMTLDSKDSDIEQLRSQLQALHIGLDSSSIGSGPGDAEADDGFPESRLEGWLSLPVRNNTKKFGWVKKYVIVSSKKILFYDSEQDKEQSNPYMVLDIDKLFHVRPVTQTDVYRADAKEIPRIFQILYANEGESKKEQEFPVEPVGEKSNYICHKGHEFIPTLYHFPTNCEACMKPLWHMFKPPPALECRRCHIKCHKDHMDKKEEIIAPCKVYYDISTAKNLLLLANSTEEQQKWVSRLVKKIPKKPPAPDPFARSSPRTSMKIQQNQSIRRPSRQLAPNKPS
T1 sequence (Q16584 whole entry): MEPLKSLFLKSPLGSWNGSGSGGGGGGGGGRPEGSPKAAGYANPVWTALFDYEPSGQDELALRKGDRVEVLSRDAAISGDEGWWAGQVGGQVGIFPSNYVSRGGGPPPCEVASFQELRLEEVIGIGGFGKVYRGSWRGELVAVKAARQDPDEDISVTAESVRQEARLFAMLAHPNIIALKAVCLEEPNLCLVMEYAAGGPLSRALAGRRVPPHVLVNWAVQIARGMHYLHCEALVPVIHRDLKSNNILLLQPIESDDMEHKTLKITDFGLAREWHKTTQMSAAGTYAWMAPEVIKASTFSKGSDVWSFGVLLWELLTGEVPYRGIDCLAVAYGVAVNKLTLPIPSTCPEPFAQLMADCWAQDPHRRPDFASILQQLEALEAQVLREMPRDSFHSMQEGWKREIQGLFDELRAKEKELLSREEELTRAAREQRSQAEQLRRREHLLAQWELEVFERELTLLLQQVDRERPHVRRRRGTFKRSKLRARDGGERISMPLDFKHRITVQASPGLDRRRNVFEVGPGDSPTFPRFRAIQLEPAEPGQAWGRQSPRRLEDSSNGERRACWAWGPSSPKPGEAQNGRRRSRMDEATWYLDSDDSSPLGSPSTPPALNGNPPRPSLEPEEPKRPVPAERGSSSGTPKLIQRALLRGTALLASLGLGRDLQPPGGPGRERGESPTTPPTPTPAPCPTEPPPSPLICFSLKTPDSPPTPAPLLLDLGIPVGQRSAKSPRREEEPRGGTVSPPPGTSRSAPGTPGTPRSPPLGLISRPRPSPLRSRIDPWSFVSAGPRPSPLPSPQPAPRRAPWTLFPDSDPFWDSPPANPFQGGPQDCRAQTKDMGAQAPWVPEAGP
T6 sequence (Q9UKE5 whole entry): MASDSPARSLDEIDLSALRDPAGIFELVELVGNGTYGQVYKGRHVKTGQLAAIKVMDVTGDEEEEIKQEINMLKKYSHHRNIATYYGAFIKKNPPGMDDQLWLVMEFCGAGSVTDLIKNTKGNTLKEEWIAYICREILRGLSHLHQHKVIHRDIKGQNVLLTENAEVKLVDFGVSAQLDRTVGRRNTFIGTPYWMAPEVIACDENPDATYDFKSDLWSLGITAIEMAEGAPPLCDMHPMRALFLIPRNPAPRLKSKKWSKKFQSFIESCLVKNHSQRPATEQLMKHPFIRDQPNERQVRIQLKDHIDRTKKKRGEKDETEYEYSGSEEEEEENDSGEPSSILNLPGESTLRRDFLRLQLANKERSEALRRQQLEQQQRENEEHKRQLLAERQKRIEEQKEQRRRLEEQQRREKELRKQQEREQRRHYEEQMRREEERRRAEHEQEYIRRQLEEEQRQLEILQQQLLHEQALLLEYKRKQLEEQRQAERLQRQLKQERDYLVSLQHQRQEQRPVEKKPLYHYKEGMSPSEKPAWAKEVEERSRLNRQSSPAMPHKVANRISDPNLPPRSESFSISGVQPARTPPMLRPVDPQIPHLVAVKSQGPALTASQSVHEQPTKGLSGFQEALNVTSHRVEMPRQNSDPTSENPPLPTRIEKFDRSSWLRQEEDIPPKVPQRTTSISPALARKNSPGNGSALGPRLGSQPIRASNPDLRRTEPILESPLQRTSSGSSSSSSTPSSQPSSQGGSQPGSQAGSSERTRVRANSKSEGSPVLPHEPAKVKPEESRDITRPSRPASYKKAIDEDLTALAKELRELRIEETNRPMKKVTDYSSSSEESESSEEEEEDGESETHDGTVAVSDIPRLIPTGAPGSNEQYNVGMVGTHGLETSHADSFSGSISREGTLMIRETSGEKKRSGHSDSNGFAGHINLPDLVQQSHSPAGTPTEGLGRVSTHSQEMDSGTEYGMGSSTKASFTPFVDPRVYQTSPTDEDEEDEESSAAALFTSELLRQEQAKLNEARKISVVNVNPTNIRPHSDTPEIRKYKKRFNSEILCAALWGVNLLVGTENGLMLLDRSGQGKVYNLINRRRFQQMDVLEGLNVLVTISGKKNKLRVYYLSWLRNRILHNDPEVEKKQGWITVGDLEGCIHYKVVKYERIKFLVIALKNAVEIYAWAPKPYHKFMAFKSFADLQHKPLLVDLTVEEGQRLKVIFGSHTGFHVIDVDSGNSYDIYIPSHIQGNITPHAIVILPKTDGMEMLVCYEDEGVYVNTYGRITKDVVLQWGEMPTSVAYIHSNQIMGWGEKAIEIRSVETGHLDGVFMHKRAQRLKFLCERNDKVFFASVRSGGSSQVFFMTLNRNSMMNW

SMILES: C=CC(=O)Nc1cccc(Nc2nc(Nc3ccc(OCCOC)c(F)c3)ncc2F)c1 [Compound 2]
- inhibition at 3 µM (MLK3/MAP3K11): 73.4%
- remaining activity at 3 µM (MLK3/MAP3K11; [1]): 27.9%
- remaining activity at 3 µM (MLK3/MAP3K11; [2]): 25.2%
- inhibition at 3 µM (BMX/ETK): 98.9%
- remaining activity at 3 µM (BMX/ETK; [1]): 0.93%
- remaining activity at 3 µM (BMX/ETK; [2]): 1.23%
- inhibition at 3 µM (ROCK2): -1.88%
- remaining activity at 3 µM (ROCK2; [1]): 102%
- remaining activity at 3 µM (ROCK2; [2]): 101%
- inhibition at 3 µM (CAMKK2): 26.8%
- remaining activity at 3 µM (CAMKK2; [1]): 74.7%
- remaining activity at 3 µM (CAMKK2; [2]): 71.8%
- inhibition at 3 µM (PKCa): 11.4%
- remaining activity at 3 µM (PKCa; [1]): 88.4%
- remaining activity at 3 µM (PKCa; [2]): 88.8%
- inhibition at 3 µM (TNIK): 32.7%
- remaining activity at 3 µM (TNIK; [1]): 66.8%
- remaining activity at 3 µM (TNIK; [2]): 67.8%
- inhibition at 3 µM (RIPK3): -18.8%
- remaining activity at 3 µM (RIPK3; [1]): 117%
- remaining activity at 3 µM (RIPK3; [2]): 121%
- inhibition at 3 µM (DCAMKL2): 0.18%
- remaining activity at 3 µM (DCAMKL2; [1]): 100%
- remaining activity at 3 µM (DCAMKL2; [2]): 99.5%
